This is an account of results in US20240032546A1, “BRASSICA SEED MEAL (BSM)-BASED BIO-HERBICIDE FOR INHIBITING WEED GERMINATION, AND PREPARATION METHOD AND USE THEREOF” (Institute of Soil Science, CAS, priority 2022, published 2024).

The test relates to field weeds (Portulaca oleracea L., Bothriochloa ischaemum L., Eleusine indica L., Setaria viridis L., and Amaranthus spinosus L.). Nature of the test: Field soil test of weed growth and germination inhibition. The class given is in vivo. The conditions noted are these: after 1 week, dazomet 40 g/m2, BSM-based bio-herbicide 0.8 wt %. The method, then:
Dazomet was added to the field soil at 40 g/m 2 of soil (as a treatment 1). The BSM-based bio-herbicide (Example 1) was added to another field soil at 0.8 wt % of the BSM per mu of soil (1 mu=300,000 jin) (as a treatment 2). The same area of field soil without adding any exogenous substances was used as a control. After 1 week, the weed growth of the two treatments and the control (field weeds included Portulaca oleracea L., Bothriochloa ischaemum L., Eleusine indica L., Setaria viridis L., and Amaranthus spinosus L.) was counted, and the germination inhibition rate of weed seeds was calculated.

Regarding `CN1CSC(=S)N(C)C1` [dazomet, Dazomet], the “inhibition rate to the field weeds compared with the control” value worked out at 86.84%. For the setting “control 1.550 kg/m^2”, the “weight of field weeds” value was 0.204 kg/m^2.
